Measurements as given in ChEMBL document CHEMBL3414470, “Synthesis and biological evaluation of 4-oxycoumarin derivatives as a new class of antifilarial agents” (Eur J Med Chem, 2015).
≈ marks a conversion by molar mass, not a printed value.

Columns and labels:
Brugia malayi [1] = assay: Antifilarial activity against Brugia malayi adult worm assessed as reduction in motility at 1.25 uM after 5 days by MTT dye reduction assay; format: functional; details: 120 h
Brugia malayi [2] = assay: Antifilarial activity against Brugia malayi adult worm assessed as reduction in motility at 0.625 uM after 5 days by MTT dye reduction assay; format: functional; details: 120 h
Brugia malayi [3] = assay: Antifilarial activity against Brugia malayi adult worm assessed as reduction in motility at 0.312 uM after 5 days by MTT dye reduction assay; format: functional; details: 120 h
Brugia malayi [4] = assay: Antifilarial activity against Brugia malayi adult worm assessed as reduction in motility at 0.156 uM after 5 days by MTT dye reduction assay; format: functional; details: 120 h
Brugia malayi [5] = assay: Antifilarial activity against Brugia malayi adult worm assessed as reduction in motility at 0.078 uM after 5 days by MTT dye reduction assay; format: functional; details: 120 h
Brugia malayi [6] = assay: Antifilarial activity against Brugia malayi adult worm assessed as reduction in motility at 0.039 uM after 5 days by MTT dye reduction assay; format: functional; details: 120 h
Brugia malayi [7] = assay: Antifilarial activity against Brugia malayi adult worm assessed as reduction in motility at 0.019 uM after 5 days by MTT dye reduction assay; format: functional; details: 120 h
Brugia malayi [8] = assay: Antifilarial activity against Brugia malayi microfilaria assessed as reduction in motility at 1.25 uM after 5 days by MTT dye reduction assay; format: functional; details: 120 h
Brugia malayi [9] = assay: Antifilarial activity against Brugia malayi microfilaria assessed as reduction in motility at 0.625 uM after 5 days by MTT dye reduction assay; format: functional; details: 120 h
Brugia malayi [10] = assay: Antifilarial activity against Brugia malayi microfilaria assessed as reduction in motility at 0.312 uM after 5 days by MTT dye reduction assay; format: functional; details: 120 h
Brugia malayi [11] = assay: Antifilarial activity against Brugia malayi microfilaria assessed as reduction in motility at 0.156 uM after 5 days by MTT dye reduction assay; format: functional; details: 120 h
Brugia malayi [12] = assay: Antifilarial activity against Brugia malayi microfilaria assessed as reduction in motility at 0.078 uM after 5 days by MTT dye reduction assay; format: functional; details: 120 h
Brugia malayi [13] = assay: Antifilarial activity against Brugia malayi microfilaria assessed as reduction in motility at 0.039 uM after 5 days by MTT dye reduction assay; format: functional; details: 120 h
Brugia malayi [14] = assay: Antifilarial activity against Brugia malayi microfilaria assessed as reduction in motility at 0.019 uM after 5 days by MTT dye reduction assay; format: functional; details: 120 h
Brugia malayi [15] = assay: Antifilarial activity against Brugia malayi adult worm assessed as reduction in motility after 5 days by MTT dye reduction assay; format: functional, organism-based; details: Brugia malayi, 120 h
[16] = Selectivity index, ratio of CC50 for African green monkey Vero cells to IC50 for Brugia malayi adult worm; format: functional
Brugia malayi [17] = assay: Antifilarial activity against Brugia malayi microfilaria assessed as reduction in motility after 5 days by MTT dye reduction assay; format: functional, organism-based; details: Brugia malayi, 120 h
[18] = Selectivity index, ratio of CC50 for African green monkey Vero cells to IC50 for Brugia malayi microfilaria; format: functional
[19] = Cytotoxicity against African green monkey Vero cells after 72 hrs by resazurin dye-based fluorescence assay; format: cell-based; details: chlorocebus sabaeus, Vero cells
Brugia malayi [20] = assay: Antifilarial activity against Brugia malayi adult worm infected in jird model assessed as adulticidal activity at 100 mg/kg, sc after 5 days measured till day 45 relative to control; format: functional; details: route subcutaneous
Brugia malayi [21] = assay: Antifilarial activity against Brugia malayi adult worm infected in jird model assessed as sterile female at 100 mg/kg, sc after 5 days measured till day 45 relative to control; format: functional; details: route subcutaneous
Brugia malayi [22] = assay: Antifilarial activity against Brugia malayi microfilariae infected in jird model assessed as microfilaricidal activity at 100 mg/kg, sc after 5 days measured till day 45 relative to control; format: functional; details: route subcutaneous
Brugia malayi [23] = assay: Ratio of ivermectin IC50 to compound IC50 for Brugia malayi adult worm; format: functional
Brugia malayi [24] = assay: Ratio of ivermectin IC50 to compound IC50 for Brugia malayi microfilariae; format: functional

CCCCCCCCCCCCNCC(O)COc1cc(=O)oc2ccccc12 (stereo unspecified)
inhibition at 1.25 µM (Brugia malayi [1]): 99.5%
inhibition at 0.625 µM (Brugia malayi [2]): 92.4%
inhibition at 0.312 µM (Brugia malayi [3]): 90.8%
inhibition at 0.156 µM (Brugia malayi [4]): 75.5%
inhibition at 0.078 µM (Brugia malayi [5]): 56%
inhibition at 0.039 µM (Brugia malayi [6]): 50%
inhibition at 0.019 µM (Brugia malayi [7]): 30%
inhibition at 1.25 µM (Brugia malayi [8]): 100%
inhibition at 0.625 µM (Brugia malayi [9]): 75%
inhibition at 0.312 µM (Brugia malayi [10]): 75%
inhibition at 0.156 µM (Brugia malayi [11]): 75%
inhibition at 0.078 µM (Brugia malayi [12]): 75%
inhibition at 0.039 µM (Brugia malayi [13]): 75%
inhibition at 0.019 µM (Brugia malayi [14]): 50%
IC50 (Brugia malayi [15]): 14 nM
MIC (Brugia malayi [15]): 1.25 µM (≈ 0.504 µg/mL)
Ratio CC50/IC50 [16]: >7142
IC50 (Brugia malayi [17]): 5.6 nM
MIC (Brugia malayi [17]): 0.625 µM (≈ 0.252 µg/mL)
Ratio CC50/IC50 [18]: >17857
CC50 at 72 h [19]: > 100000 nM
Activity (Brugia malayi [20]): 74.9%
Activity (Brugia malayi [21]): 19.3%
Activity (Brugia malayi [22]): 50.8%
Ratio IC50 (Brugia malayi [23]): 129
Ratio IC50 (Brugia malayi [24]): 714
